We go through twelve compounds from US10669272B2, “Substituted naphthyridinone compounds useful as T cell activators” (BRISTOL-MYERS SQUIBB COMPANY, priority 2018, dated 2020).

Where a name gives a salt, the structure may show the parent alone.

The target of one assay is T1, human DGKζ (Homo sapiens, UniProt Q13574).
T1 construct: TVMV protease cleavage site (C); Hexa-His (C); made in house; host or cells: Sf9 insect cells (baculovirus, Bac-to-Bac)
The assay is described as follows: DGKζ LIPGLO assay (extruded liposome substrate), in vitro DGK inhibition. Format: biochemical. Particulars: liposome (LIPGLO) assay; read-out: DGKz LIPGLO IC50.

A further assay concerns the target T2, human DGKα (Homo sapiens, UniProt P23743).
T2 construct: TVMV protease cleavage site (C); Hexa-His (C); made in house; host or cells: Sf9 insect cells (baculovirus, Bac-to-Bac)
The assay is described as follows: DGKα LIPGLO assay (extruded liposome substrate), in vitro DGK inhibition. Particulars: liposome (LIPGLO) assay; read-out: DGKa LIPGLO IC50. It counts as biochemical.

T2 sequence (P23743 with tags, fused parts or gaps): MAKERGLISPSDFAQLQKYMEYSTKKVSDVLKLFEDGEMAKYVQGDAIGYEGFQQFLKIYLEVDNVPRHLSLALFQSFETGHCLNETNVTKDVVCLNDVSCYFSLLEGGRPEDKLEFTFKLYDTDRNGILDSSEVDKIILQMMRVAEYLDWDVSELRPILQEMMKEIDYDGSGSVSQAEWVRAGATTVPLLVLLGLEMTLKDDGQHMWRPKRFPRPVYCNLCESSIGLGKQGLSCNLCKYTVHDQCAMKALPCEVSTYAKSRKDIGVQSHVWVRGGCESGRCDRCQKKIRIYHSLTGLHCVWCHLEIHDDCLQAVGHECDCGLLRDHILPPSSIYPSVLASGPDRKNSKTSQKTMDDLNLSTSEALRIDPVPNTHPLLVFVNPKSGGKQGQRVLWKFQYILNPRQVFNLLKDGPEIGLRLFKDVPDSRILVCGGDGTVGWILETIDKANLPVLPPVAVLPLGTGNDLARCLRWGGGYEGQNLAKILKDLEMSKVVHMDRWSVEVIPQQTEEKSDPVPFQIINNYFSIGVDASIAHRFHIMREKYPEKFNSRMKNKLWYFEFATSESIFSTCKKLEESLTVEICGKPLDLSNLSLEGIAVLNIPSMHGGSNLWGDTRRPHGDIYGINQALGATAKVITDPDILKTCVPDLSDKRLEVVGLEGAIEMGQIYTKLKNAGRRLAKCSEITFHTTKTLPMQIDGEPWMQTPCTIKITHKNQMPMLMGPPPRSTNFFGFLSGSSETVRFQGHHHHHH
T1 sequence (Q13574 with tags, fused parts or gaps isoform Q13574-4): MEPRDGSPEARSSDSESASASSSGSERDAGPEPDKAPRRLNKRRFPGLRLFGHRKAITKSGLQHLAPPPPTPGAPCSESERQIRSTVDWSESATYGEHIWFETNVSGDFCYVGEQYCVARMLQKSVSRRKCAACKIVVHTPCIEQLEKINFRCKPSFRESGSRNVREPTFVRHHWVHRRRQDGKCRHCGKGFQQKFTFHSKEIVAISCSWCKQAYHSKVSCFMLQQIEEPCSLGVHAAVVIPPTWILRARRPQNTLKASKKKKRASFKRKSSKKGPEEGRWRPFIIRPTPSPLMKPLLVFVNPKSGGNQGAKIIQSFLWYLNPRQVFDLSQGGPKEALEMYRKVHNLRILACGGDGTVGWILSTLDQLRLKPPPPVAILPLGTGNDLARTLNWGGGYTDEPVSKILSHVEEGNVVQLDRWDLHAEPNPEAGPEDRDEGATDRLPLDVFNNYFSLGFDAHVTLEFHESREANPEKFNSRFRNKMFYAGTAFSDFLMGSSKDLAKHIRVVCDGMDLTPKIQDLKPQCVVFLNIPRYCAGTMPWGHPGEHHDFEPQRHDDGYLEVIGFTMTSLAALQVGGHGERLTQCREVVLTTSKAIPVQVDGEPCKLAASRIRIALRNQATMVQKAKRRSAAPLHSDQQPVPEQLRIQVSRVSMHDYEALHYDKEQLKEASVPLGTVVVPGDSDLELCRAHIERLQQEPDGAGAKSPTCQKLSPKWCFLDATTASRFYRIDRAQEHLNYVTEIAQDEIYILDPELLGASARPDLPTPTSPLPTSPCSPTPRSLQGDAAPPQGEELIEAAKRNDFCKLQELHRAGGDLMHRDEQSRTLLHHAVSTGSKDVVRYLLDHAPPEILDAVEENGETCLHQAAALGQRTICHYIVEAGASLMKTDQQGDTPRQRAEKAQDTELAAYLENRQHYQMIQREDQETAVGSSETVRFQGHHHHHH

As for `Cn1c(=O)cc(N2CCN(C(c3ccc(F)cc3)c3ccc(F)cc3)CC2CF)c2nc(C#N)ccc21` (racemic) [Example 149, 8-(4-(bis(4-fluorophenyl)methyl)-2-(fluoromethyl)piperazin-1-yl)-5-methyl-6-oxo-5,6-dihydro-1,5-naphthyridine-2-carbonitrile], the concentration for half-maximal inhibition (IC50) on human DGKζ was 21 µM; on human DGKα, 35 µM.
The like results for `C[C@@H]1CN(c2cc(=O)n(C)c3ccc(C#N)nc23)[C@@H](C)CN1C(CF)c1ccc(F)cc1` (mixture of isomers) [Example 556, 8-[(2S,5R)-4-[2-fluoro-1-(4-fluorophenyl)ethyl]-2,5-dimethylpiperazin-1-yl]-5-methyl-6-oxo-5,6-dihydro-1,5-naphthyridine-2-carbonitrile] were, in that order, 6 µM and 2.6 µM.
In the same order, the values of `Cn1c(=O)c(C#N)c(N2CCN(C(c3ccc(F)cc3)c3ccc(F)cc3)C(C(N)=O)C2)c2nc(C#N)ccc21` (single isomer, unassigned) [Example 58, 1-(bis (4-fluorophenyl)methyl)-4-(3,6-dicyano-1-methyl-2-oxo-1,2-dihydro-1,5-naphthyridin-4-yl)piperazine-2-carboxamide] are 180 µM and 7.2 µM.
As for `CC(C)C(C)(F)C1CN(c2cc(=O)n(C)c3ccc(C#N)nc23)CCN1C(c1ccc(F)cc1)c1ccc(F)cc1` (single isomer, unassigned) [Example 91, 8-(4-(bis(4-fluorophenyl)methyl)-3-(2-fluoro-3-methylbutan-2-yl)piperazin-1-yl)-5-methyl-6-oxo-5,6-dihydro-1,5-naphthyridine-2-carbonitrile, TFA], the IC50 at human DGKζ and on human DGKα was 240 µM in each case.
On to `COc1cc(F)ccc1C(c1ccc(F)cc1)N1C[C@H](C)N(c2c([N+](=O)[O-])c(=O)n(C)c3ccc(C#N)nc23)C[C@H]1C` (single isomer, unassigned) [Example 121], for which the IC50 at human DGKζ came out at 52 µM; on human DGKα, 240 µM.
Consider `Cn1c(=O)cc(N2CCN(C(c3ccc(F)cc3)c3ccc(F)cc3)CC2C(N)=O)c2nc(C#N)ccc21` (single isomer, unassigned) [Example 141, 4-(bis(4-fluorophenyl)methyl)-1-(6-cyano-1-methyl-2-oxo-1,2-dihydro-1,5-naphthyridin-4-yl)piperazine-2-carboxamide], for which the IC50 at human DGKζ worked out at 200 µM; at human DGKα, 240 µM.
With `Cn1c(=O)cc(N2CC(C3CC3)N(C(c3ccc(F)cc3)c3ccc(F)cc3)CC2C2CC2)c2nc(C#N)ccc21` (single isomer, unassigned) [Example 152, 8-(4-(bis(4-fluorophenyl)methyl)-2,5-dicyclopropylpiperazin-1-yl)-5-methyl-6-oxo-5,6-dihydro-1,5-naphthyridine-2-carbonitrile], the IC50 at human DGKζ worked out at 240 µM; at human DGKα it was 7.7 µM.
In the same order, the values of `Cn1c(=O)cc(N2CC(C3CC3)N(C(c3ccc(F)cc3)c3ccc(F)cc3)CC2C2CC2)c2nc(C#N)ccc21` (single isomer, unassigned) [Example 153, 8-(4-(bis(4-fluorophenyl)methyl)-2,5-dicyclopropylpiperazin-1-yl)-5-methyl-6-oxo-5,6-dihydro-1,5-naphthyridine-2-carbonitrile] are 240 µM and 240 µM.
In the same order, the values of `C[C@@H]1CN(c2c(C#N)c(=O)n(C)c3ccc(C#N)nc23)CCN1C(c1ccc(F)cc1)c1ccncn1` (single isomer, unassigned) [Example 312] are 3.4 µM and 0.71 µM.
Consider `CC[C@H]1CN(C(c2ccc(F)cc2)c2nc(C3CC3)no2)[C@H](CC)CN1c1cc(=O)n(C)c2ccc(C#N)nc12` (stereo partly drawn) [Example 1065], for which the IC50 on human DGKζ came to 0.031 µM.
Take `C[C@@H]1CN(c2cc(=O)n(C)c3ccc(C#N)nc23)[C@@H](C)CN1Cc1cn(C)nn1` [Example 1435]: the IC50 on human DGKα came to 160 µM.
Take `Cc1nnc(C(C)N2C[C@H](C)N(c3cc(=O)n(C)c4ccc(C#N)nc34)C[C@H]2C)o1` (stereo partly drawn) [Example 1437]: the IC50 at human DGKα was determined as 150 µM.
